Results: the NIST ThermoML archive (doi:10.1021/je900888e)
± gives the expanded uncertainty stated by the source.

Assay: mn = molality of the nth substance listed, in mol/kg
Settings: 101 kPa, Liquid; for speed of sound: Pulse-echo method

CCCCO [butan-1-ol] + CCCC[P+](CCCC)(CCCC)CCCC.[Br-]
m2 = 0
Settings	mass density [kg/m3]
288.15 K	813.269 ± 0.23
293.15 K	809.472 ± 0.23
298.15 K	805.659 ± 0.23
303.15 K	801.817 ± 0.23
308.15 K	797.945 ± 0.24
313.15 K	794.037 ± 0.24
323.15 K	786.081 ± 0.25

CCCC[P+](CCCC)(CCCC)CCCC.[Br-] [tetrabutylphosphonium bromide] + CC(C)=O
Settings	mass density, 288.15 K [kg/m3]	mass density, 293.15 K [kg/m3]	mass density, 298.15 K [kg/m3]	mass density, 303.15 K [kg/m3]	mass density, 308.15 K [kg/m3]	mass density, 313.15 K [kg/m3]	speed of sound, 298.15 K [m/s]
m1 = 0.009972	796.516 ± 0.24	790.843 ± 0.25	785.133 ± 0.25	779.385 ± 0.26	773.586 ± 0.26	767.735 ± 0.27	1161.1 ± 0.81
m1 = 0.01477	796.926 ± 0.24	791.257 ± 0.25	785.552 ± 0.25	779.806 ± 0.26	774.015 ± 0.26	768.169 ± 0.26	–
m1 = 0.01959	797.328 ± 0.24	791.666 ± 0.24	785.967 ± 0.25	780.225 ± 0.25	774.439 ± 0.26	768.597 ± 0.26	1161.8 ± 0.81
m1 = 0.02424	797.711 ± 0.24	792.056 ± 0.24	786.362 ± 0.25	780.624 ± 0.25	774.841 ± 0.26	769.006 ± 0.26	–
m1 = 0.02891	798.099 ± 0.24	792.447 ± 0.24	786.758 ± 0.25	781.026 ± 0.25	775.247 ± 0.26	769.416 ± 0.26	–
m1 = 0.03385	798.51 ± 0.24	792.86 ± 0.24	787.178 ± 0.25	781.451 ± 0.25	775.678 ± 0.26	769.85 ± 0.26	1162.7 ± 0.82
m1 = 0.04786	799.673 ± 0.24	794.037 ± 0.24	788.362 ± 0.25	782.648 ± 0.25	776.885 ± 0.26	771.075 ± 0.26	1163.6 ± 0.82
m1 = 0.0619	800.822 ± 0.24	795.195 ± 0.24	789.537 ± 0.25	783.836 ± 0.25	778.088 ± 0.26	772.29 ± 0.26	1164.5 ± 0.82
m1 = 0.07794	802.136 ± 0.24	796.525 ± 0.24	790.878 ± 0.25	785.191 ± 0.25	779.457 ± 0.26	773.675 ± 0.26	1165.7 ± 0.82
m1 = 0.09642	803.646 ± 0.24	798.046 ± 0.24	792.414 ± 0.25	786.74 ± 0.25	781.022 ± 0.26	775.257 ± 0.26	1166.8 ± 0.83
m1 = 0.123	805.822 ± 0.24	800.247 ± 0.24	794.64 ± 0.25	788.995 ± 0.25	783.255 ± 0.26	777.557 ± 0.26	1168.4 ± 0.83
m1 = 0.1559	808.487 ± 0.24	802.938 ± 0.24	797.356 ± 0.24	791.736 ± 0.25	786.072 ± 0.25	780.36 ± 0.26	1170.4 ± 0.84
m1 = 0.1912	811.381 ± 0.24	805.858 ± 0.24	800.306 ± 0.24	794.713 ± 0.25	789.077 ± 0.25	783.39 ± 0.26	1172.7 ± 0.85
m1 = 0.2209	813.828 ± 0.24	808.333 ± 0.24	802.798 ± 0.24	797.229 ± 0.25	791.622 ± 0.25	785.97 ± 0.26	1174.3 ± 0.85
m1 = 0.2576	816.813 ± 0.23	811.345 ± 0.24	805.845 ± 0.24	800.309 ± 0.25	794.734 ± 0.25	789.113 ± 0.26	1176.6 ± 0.86
m1 = 0.2914	819.596 ± 0.23	814.151 ± 0.24	808.679 ± 0.24	803.169 ± 0.25	797.619 ± 0.25	792.03 ± 0.26	1178.7 ± 0.87
